Test [1] relates to human DNA G-quadruplex d(TTAGGG)4. In words: NMR imino proton titration with G-quadruplex DNA. Format: binding. Particulars: overall stoichometry 1:1. As to the method:
(C) Compounds may be selected for their ability to interact with human DNA G-quadruplex as indicated by NMR spectroscopy. The imino proton spectrum (9-12 ppm) of a solution of d(TTAGGG)4 in D2O/H2O (10:90) was determined at 500 MHz. Aliquot of N,N′-bis(2-piperdinoethyl)-3,4,9,10-perylenetetracarboxylic acid diimide were added and the imino proton spectrum recorded.

The subject of test [2] is prostate cell line DU-145. In words: Cytotoxicity of III in combination with Norfloxacin. The settings on record: given alone. Type of test: cell-based. As to the method: FIG. 11. Effect of increasing concentrations of Norfloxacin on the cytotoxic effect of QQ58, compound III in FIG. 2 in the prostate cell line DU-145. Compound III was either given alone (●) or in combination with Norfloxacin at concentrations of 2.58 (♦), 19.37 (♦), or 87.33 (▪) μg/ml. For additions of 2.58 and 19.37 μ/ml of Norfloxacin, the IC50 of compound III was increased by approximately 14- and 20-fold.
Exponentially growing cells in 0.1 ml medium were seeded on Day 0 in 96-well microtiter plates. On Day 1, 0.1-ml aliquots of medium containing graded concentrations test agent were added in duplicate to the cell plates. After incubation at 37° C. in a humidified incubator, the plates were centrifuged briefly (1-2 min at 1000 rpm), and 100 μl of the growth medium was removed. Cell cultures were incubated with 50 μl of 3-(4,5-dimethylthiazyl-2-yl)-2,5-diphenyltetrazolium bromide MTT, 1 mg/ml in Dubecco's PBS for 4 h at 37° C. […] Absorbance was quantitated using a Bio-Rad Model 3550 microplate reader at a test wavelength of 570 nm and a reference wavelength of 630 nm. Absorbance values were transferred to a 486 personal computer, and the IC50 values were determined using the computer program EZ-ED50 (Chen et al., 1993).
In separate studies, the IC50 of III and the IC10, IC20, and IC50 of Norfloxacin were determined for DU-145, a prostate cell line.

The target of test [3] is T1, topo II-DNA complex (Drosophila melanogaster, UniProt P15348).
T1 construct: purchased Amersham
T1 sequence (P15348 1-1447): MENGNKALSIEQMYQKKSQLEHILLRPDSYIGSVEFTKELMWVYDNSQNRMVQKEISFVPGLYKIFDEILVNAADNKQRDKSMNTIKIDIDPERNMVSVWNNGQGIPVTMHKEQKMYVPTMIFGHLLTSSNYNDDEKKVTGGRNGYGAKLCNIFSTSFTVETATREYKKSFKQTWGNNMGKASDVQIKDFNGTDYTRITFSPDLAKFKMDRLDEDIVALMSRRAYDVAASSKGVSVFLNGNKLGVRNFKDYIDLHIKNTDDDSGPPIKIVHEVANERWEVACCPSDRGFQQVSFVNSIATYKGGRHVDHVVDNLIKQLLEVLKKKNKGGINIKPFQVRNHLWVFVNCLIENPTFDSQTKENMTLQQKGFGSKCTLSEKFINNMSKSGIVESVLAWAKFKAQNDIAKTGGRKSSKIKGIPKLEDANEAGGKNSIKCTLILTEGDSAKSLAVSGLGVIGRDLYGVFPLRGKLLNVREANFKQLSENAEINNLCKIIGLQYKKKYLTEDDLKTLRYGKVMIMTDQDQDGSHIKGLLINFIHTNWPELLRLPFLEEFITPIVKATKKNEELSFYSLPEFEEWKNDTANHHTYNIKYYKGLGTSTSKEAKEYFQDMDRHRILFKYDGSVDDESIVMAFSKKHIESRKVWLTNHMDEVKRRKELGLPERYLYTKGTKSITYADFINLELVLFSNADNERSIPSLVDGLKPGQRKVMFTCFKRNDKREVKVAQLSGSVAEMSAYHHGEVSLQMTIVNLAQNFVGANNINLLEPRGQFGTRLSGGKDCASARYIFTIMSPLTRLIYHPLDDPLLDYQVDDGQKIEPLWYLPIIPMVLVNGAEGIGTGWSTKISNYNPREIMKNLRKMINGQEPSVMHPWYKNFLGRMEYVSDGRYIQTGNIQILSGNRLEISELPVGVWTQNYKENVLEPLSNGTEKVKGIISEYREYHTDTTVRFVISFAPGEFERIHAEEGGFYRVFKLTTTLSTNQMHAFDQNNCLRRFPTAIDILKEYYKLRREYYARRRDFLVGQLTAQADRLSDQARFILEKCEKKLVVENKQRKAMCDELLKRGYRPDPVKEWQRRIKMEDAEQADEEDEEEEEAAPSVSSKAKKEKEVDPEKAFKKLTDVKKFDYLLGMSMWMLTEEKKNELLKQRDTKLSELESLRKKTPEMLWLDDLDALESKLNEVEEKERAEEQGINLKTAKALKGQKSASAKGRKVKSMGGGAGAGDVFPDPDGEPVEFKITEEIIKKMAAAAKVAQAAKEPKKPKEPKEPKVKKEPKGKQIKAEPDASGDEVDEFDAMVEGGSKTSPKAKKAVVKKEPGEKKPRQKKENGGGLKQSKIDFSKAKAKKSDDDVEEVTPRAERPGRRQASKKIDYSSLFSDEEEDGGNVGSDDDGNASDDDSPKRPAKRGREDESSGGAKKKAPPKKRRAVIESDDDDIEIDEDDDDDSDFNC
In words: Psorospermin competition study (DNA strand breakage assay). Type of test: biochemical. Particulars: 0.5-10 μM drug, psorospermin, topo II present. How it is done: 5′^32P-labeled DNA was incubated with Drosophila topo II in the same buffer as the one in the topo II cleavage reaction in the presence of various amounts of either A-62176, Norfloxacin, or both. The incubation reactions took place at 30° C. for 10 min before 10 μM (final concentration) of psorospermin was added to the mixtures. The reactions were continued for an additional 5 min and then terminated by adding 5 μg of calf thymus DNA, followed by heating at 95° C. for 15 min. In the presence of piperidine, this procedure induces strand breakage at the drug modification sites (Hansen et al., 1996). The samples were subjected to phenol/chloroform extraction followed by ethanol precipitation.
In the presence of topo II, the reactivity of psorospermin is enhanced more than 40-fold with the guanine at the +4′ position at site B in FIG. 7 (Kwok et al., 1998a and 1998b). A DNA strand breakage assay was used to locate the position of alkylation of DNA by the epoxide of psorospermin upon intercalation to the base pairs between the +1 and +2 positions at site B within the topo II-DNA complex (Kwok et al., 1998a). Psorospermin has subsequently been used to probe the binding sites for m-AMSA (Kwok et al., 1998a). In the present study, this same assay was performed to determine the binding site of A-62176 on DNA in the presence of topo II.

Test [4] concerns the target T1, topo II-DNA complex. Particulars: cited from earlier work.

The values below come from US6528517B1, “Synthesis of quinobenzoxazine analogues with topoisomerase II and quadruplex interactions for use as antineoplastic agents” (Board of Regents, The University of Texas System, priority 1998, dated 2003).

`O=C1c2ccc3c4ccc5c6c(ccc(c7ccc(c2c37)C(=O)N1CCN1CCCCC1)c64)C(=O)N(CCN1CCCCC1)C5=O` [N,N′-bis(2-piperdinoethyl)-3,4,9,10-perylenetetracarboxylic acid diimide]: the “upfield shift of G6 imino resonance” value in test [1] was above 0.2 ppm. With `CCn1cc(C(=O)O)c(=O)c2cc(F)c(N3CCNCC3)cc21` [Norfloxacin], in test [2], the “potency relative to III (fold less potent)” value is on record as “at least 1000 fold”. The “psorospermin alkylation at site B (competition)” value in test [3] is “no competition”.

Turning to `COc1cc2c(c3oc4c(O)cccc4c(=O)c13)C[C@H]([C@@]1(C)CO1)O2` [Psorospermin], the “enhancement of reactivity with guanine at +4′ position of site B in the presence of topo II” value in test [4] is “more than 40 fold”.
